Values quoted from earlier work as cited in patent US8067405B2, “Superoxide dismutase mimics for the treatment of ocular disorders and diseases” (Novartis AG, priority 2002, dated 2011).

Tested on: diabetogenic T-cell clone
Conditions: in a cloned cell

For CCN1C=CC=C/C1=C1/C2=NC(=C(c3cccc[n+]3CC)C3=NC(=C(c4cccc[n+]4CC)c4ccc([n-]4)C(c4cccc[n+]4CC)=C4C=CC1=N4)C=C3)C=C2.[Cl-].[Cl-].[Cl-].[Cl-].[Cl-].[Mn+3] [AEOL10113], the onset of diabetes is listed as “delay the onset of diabetes”.
